Measured values published in patent publication EP0023083A1, “Oxodiazole derivatives, processes for their production and pharmaceutical composition containing them” (BEECHAM GROUP PLC, priority 1979, dated 1981).

Tested on: 5-hydroxy tryptamine induced bronchoconstriction
Assay: Bronchodilator activity: inhibition of 5-hydroxy tryptamine induced bronchoconstriction (Konzett-Rossler preparation)
Type: in vivo
Details: Cavia porcellus, iv; anaesthetised, artificially respired guinea pig
Method: The compounds were examined for their ability to inhibit 5-hydroxy tryptamine induced bronchoconstriction in the anaethetised, artifically respired guinea pig (Konzett-Rossler preparation). The compounds were administered intravenously.

| SMILES | ED50 [µg/kg] |
| --- | --- |
| CCCCCCC(C)(O)CCN1C(=O)N(C)C(=O)C1CCCCCCCC(C)O (centres unmarked) [Compound 2] | 5.5 |
| CCCCCCC(C)(O)CCN1C(=O)N(C)C(=O)C1C/C=C\CCCCC(C)O (centres unmarked) [Compound 3] | 3.6 |
